Measurements as given in the supplement of paper PMC10307832.

What was measured:
Test in all cases: relative viability (nuclei count vs DMSO), 5 days (fraction); higher = more cells survive
Vandetanib = compound: COc1cc2/c(=N/c3ccc(Br)cc3F)nc[nH]c2cc1OCC1CCN(C)CC1 [Vandetanib]
In short: (§1)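 Hoechst staining, done together with fixation and permeabilisation, marked nuclei for 4× imaging and MetaXpress counting. This followed 5 days without medium change after lung cancer cell lines, kept overnight at 37 °C in 1536-well plates, were pinned with five library-drug doses (not always all listed) spaced by √10 on vehicle-anchored plates. Viability is the ratio of treated-well to vehicle-well nuclei, expressed as a median across plates. Plates passed only at control CV below 25% with at least one doubling.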

CUDC-101 = compound: C#Cc1cccc(Nc2ncnc3cc(OC)c(OCCCCCCC(=O)NO)cc23)c1 [CUDC-101]
In short: as §1

[1] = compound: C1=CC=C2C(=C1)N=C(S2)C(C#N)C3=NC(=NC=C3)NCCC4=CN=CC=C4
In short: as §1

NVP-TAE684 = compound: COc1cc(N2CCC(N3CCN(C)CC3)CC2)ccc1Nc1ncc(Cl)c(Nc2ccccc2S(=O)(=O)C(C)C)n1 [NVP-TAE684]
In short: as §1

Row | Cell Line | relative viability (Vandetanib; 0.02 µM) | relative viability (Vandetanib; 0.06325 µM) | relative viability (Vandetanib; 0.2 µM) | relative viability (Vandetanib; 0.6325 µM) | relative viability (Vandetanib; 2 µM) | relative viability (CUDC-101; 0.01 µM) | relative viability (CUDC-101; 0.03162 µM) | relative viability (CUDC-101; 0.1 µM) | relative viability (CUDC-101; 0.3162 µM) | relative viability (CUDC-101; 1 µM) | relative viability ([1]; 0.005 µM) | relative viability ([1]; 0.01581 µM) | relative viability ([1]; 0.05 µM) | relative viability ([1]; 0.1581 µM) | relative viability ([1]; 0.5 µM) | relative viability (NVP-TAE684; 0.2 µM) | relative viability (NVP-TAE684; 0.6325 µM) | relative viability (NVP-TAE684; 2 µM)
1 | LXF-289 | 1.01 | 1.02 | 1.03 | 0.985 | 0.968 | 1.01 | 1.03 | 0.997 | 0.971 | 0.908 | 0.925 | 1.09 | 0.968 | 1.06 | 0.948 | 1.02 | 1.01 | 0.907
2 | NCI-H2342 | 1 | 0.964 | 0.953 | 0.95 | 0.949 | 1.06 | 0.931 | 0.973 | 0.996 | 0.923 | 0.82 | 0.978 | 0.874 | 1 | 0.938 | 0.917 | 0.849 | 0.647
3 | HOP-62 | 0.947 | 1.02 | 1.01 | 1.02 | 1.04 | 0.971 | 1.07 | 1.06 | 1 | 0.941 | 0.951 | 1.08 | 1.01 | 1.24 | 1.07 | – | 1 | 1.04
4 | LCLC-103H | 0.959 | 0.92 | 1.05 | 0.899 | 0.931 | 0.987 | 1.01 | 1.06 | 1.05 | 0.926 | 0.928 | 0.952 | 0.955 | 1.07 | 0.947 | 1.08 | 0.956 | 0.938
5 | LOU-NH91 | 0.986 | 0.869 | 0.825 | 0.823 | 0.859 | 1.06 | 0.846 | 0.932 | 0.872 | 0.646 | 0.954 | 0.875 | 0.815 | 1.02 | 0.916 | 0.966 | 0.833 | 0.703
6 | NCI-H1915 | 0.956 | 0.984 | 1.01 | 0.97 | 0.985 | 0.981 | 1.03 | 0.956 | 0.936 | 0.793 | 0.925 | 1.03 | 0.969 | 1.1 | 0.94 | 1.02 | 1.02 | 0.949
7 | NCI-H1395 | 0.909 | 0.954 | 0.856 | 0.938 | 0.795 | 1.05 | 0.883 | 0.952 | 0.974 | 0.648 | 0.876 | – | 0.922 | 1.11 | 0.995 | 1.01 | 0.777 | 0.977
8 | NCI-H1563 | 0.973 | 1.07 | 0.989 | 1.03 | 0.94 | 0.968 | 0.869 | 1.06 | 0.917 | 0.893 | 0.778 | 0.944 | 0.899 | 0.995 | 0.946 | 0.955 | 0.95 | –
9 | COR-L23 | 0.974 | 0.93 | 1.02 | 1.08 | 1.06 | 1.11 | 0.99 | 1.05 | 0.974 | 0.641 | 0.944 | 1.13 | 1.05 | 1.2 | 0.884 | 0.972 | 1 | 0.481
10 | EBC-1 | 0.93 | 0.959 | 1.07 | 1.09 | 1.03 | 1 | 0.89 | 0.975 | 0.785 | 0.582 | 1.02 | 1.15 | 0.803 | 1.06 | 0.858 | 0.836 | 1.03 | 0.744
11 | NCI-H1734 | 0.954 | 0.93 | 1.03 | 0.894 | 1.01 | 1.01 | 0.942 | 1.05 | 0.95 | 0.703 | 0.787 | 0.91 | 0.963 | 1.14 | 0.871 | 0.983 | 0.901 | 0.705
12 | NCI-H2405 | 0.993 | 0.785 | 1.1 | 1.06 | 0.689 | 1.06 | 0.984 | 1.09 | 1.1 | 0.951 | 0.981 | 0.943 | 0.962 | 0.988 | 0.981 | 1.06 | 0.869 | 0.574
13 | NCI-H2087 | 0.934 | 0.938 | 1.02 | 1.15 | 1.14 | 1.24 | 1.06 | 0.95 | 1.1 | 0.884 | 0.993 | 1.03 | 1.03 | 1.13 | 0.981 | 1.09 | – | 0.989
14 | NCI-H1793 | 1.01 | 0.821 | 0.833 | 0.765 | 0.781 | 0.95 | 0.707 | 0.825 | 0.92 | 0.613 | 0.716 | 0.906 | 0.852 | 1.05 | 0.925 | 0.826 | 0.875 | 0.816
15 | NCI-H2085 | 1.04 | 0.99 | 0.99 | 1.01 | 0.931 | 1.01 | 1.03 | 1.02 | 0.981 | 0.893 | 0.928 | 0.983 | 0.977 | 1.01 | 0.998 | 0.986 | – | 0.914
16 | NCI-H358 | 0.918 | 0.86 | 0.877 | 0.731 | 0.568 | 1.04 | 0.873 | 0.91 | 0.804 | 0.63 | 0.784 | 0.904 | 0.823 | 1.06 | 0.913 | 0.898 | 0.791 | 0.289
17 | NCI-H2023 | 0.909 | 0.947 | 1.02 | 0.917 | 0.936 | 1.02 | 0.884 | 0.962 | 1.15 | 0.87 | 0.887 | 1.02 | 0.889 | 1.16 | 0.935 | 1.02 | 0.756 | 0.265
18 | SW 1573 | 0.941 | 0.972 | 0.92 | 0.979 | 0.983 | 1.16 | 0.976 | 1.09 | 1.07 | 0.734 | 0.855 | 1.11 | 0.792 | 1.13 | 0.978 | 0.948 | 1.02 | 0.645
19 | SW 900 | 0.898 | 0.887 | 0.65 | 0.93 | 0.775 | 0.927 | 0.881 | 0.803 | 0.878 | 0.624 | 0.899 | 0.845 | 0.885 | 1 | 0.823 | 0.96 | 0.754 | 0.776
